The molecules below were run against TRPC6 (Homo sapiens (Human), UniProt Q9Y210) (assay: High throughput screening assay: fluorescent calcium (Fluo4/AM) assay of TRPC6 channel activation by GSK1702934A in HEK293/TREx cells). Details: HEK293/TREx cells stably transfected with TRPC6; agonist GSK1702934A; 7 concentrations 20 μM to 0.027 μM, triplicate.
Assay type: cell-based
Excerpt: This screening assay measures TRPC6 (transient receptor potential cation channel, subfamily C, member 6) ion channel activation via addition either of the commercially available DAG ligand analogue OAG (1-oleoyl-2-acetyl-sn-glycerol) or of the TRPC6 agonist 1-[1-(4,5,6,7,8-pentahydrocyclohepta[2,1-d]thiophen-2-ylcarbonyl)-4-piperidyl]-3-hydrobenzimidazol-2-one (GSK1702934A). The assay utilizes a FLIPR fluorescent calcium sensor 4-(6-Acetoxymethoxy-2,7-difluoro-3-oxo-9-xanthenyl)-4′-methyl-2,2′-(ethylenedioxy)dianiline-N,N,N′,N′-tetraacetic acid tetrakis(acetoxymethyl) ester (Fluo4/AM) […]. Changes (increases) in intracellular membrane calcium concentration potential as measured by the fluorescent signal increase during membrane depolarization provide a measurement of channel activity.
The commercially available HEK293/TREx line (Invitrogen) was stably transfected with a TRPC6 construct and screened by conventional calcium imaging to find clones with TRPC6 expression following stimulation with 1 μg/ml tetracycline. These cells were maintained in the growth medium recommended by the manufacturer supplemented with 100 μg/ml hygromycin to promote retention of the TRPC6 construct. After growing to near confluency, cells were plated at a density of ^˜35,000 cells/well in 384 well CellBind plates (Corning) in the presence of 1 μg/ml tetracycline, and allowed to grow for 20-30 hrs. A nearly confluent monolayer resulted. Growth media was removed from the wells and cells were then loaded with […] Fluo4/AM diluted in Ringer's Solution (6.5 g NaCl, 0.42 g KCl, 0.25 g CaCl2) and 0.2 g of sodium bicarbonate; pH 7.4) supplemented with 1% Pluronic F-127 to a final concentration of 0.5 μM and incubated for 60 min, at room temperature. Dye solution was then removed from the cells by inverting plates with a sharp flick, and replaced with 25 μl Ringer's. Following ^˜0.5 hour for recovery from loading, cells were assayed using the Hamamatsu FDSS 6000 system, which permitted illumination at 485 nm. Frames were acquired at a rate of 0.2 Hz. During the assay, the plates were continuously vortexed, with pipette mixing of wells following addition of each reagent. For the screening assay, 26 μl of a diluted compound stock (at 50 μM) was added to each well for 2 minutes following the collection of a short (4 frame) baseline. 13 μl of agonist solution consisting of 125 nM GSK1702934A diluted in high-Ca2+Ringer solution (containing 90 mm Ca2+) was then added to each well, achieving a final concentration of 20 mm Ca2+ and 10 μM test compound. Data was collected for ^˜3 minutes following addition of high Ca2+Ringer. The fluorescent ratio for each well was divided by the initial fluorescent intensity for that well and the overall response was determined by averaging the fluorescent ratio of the last 4 frames acquired during the experiment excepting the final frame. Negative and Positive controls were included on each plate. Negative controls wells consisted of HEK293/TREx TRPC6 cells exposed to assay buffer and agonist solution, but no test compound. Positive control consisted of wells consisted of HEK293/TREx TRPC6 cells exposed to 25 μM 3-[(2-chlorophenoxy)methyl]phenyl piperidyl ketone (Chembridge) diluted in Ringer's solution and agonist solution. These controls defined zero percent and 100 percent block respectively, and intensity of each well was normalized to these values.
Compounds were tested in triplicate at all concentrations. Standard software was used to fit IC50 curves.

TRPC6, sequence (Q9Y210 whole entry, species assumed): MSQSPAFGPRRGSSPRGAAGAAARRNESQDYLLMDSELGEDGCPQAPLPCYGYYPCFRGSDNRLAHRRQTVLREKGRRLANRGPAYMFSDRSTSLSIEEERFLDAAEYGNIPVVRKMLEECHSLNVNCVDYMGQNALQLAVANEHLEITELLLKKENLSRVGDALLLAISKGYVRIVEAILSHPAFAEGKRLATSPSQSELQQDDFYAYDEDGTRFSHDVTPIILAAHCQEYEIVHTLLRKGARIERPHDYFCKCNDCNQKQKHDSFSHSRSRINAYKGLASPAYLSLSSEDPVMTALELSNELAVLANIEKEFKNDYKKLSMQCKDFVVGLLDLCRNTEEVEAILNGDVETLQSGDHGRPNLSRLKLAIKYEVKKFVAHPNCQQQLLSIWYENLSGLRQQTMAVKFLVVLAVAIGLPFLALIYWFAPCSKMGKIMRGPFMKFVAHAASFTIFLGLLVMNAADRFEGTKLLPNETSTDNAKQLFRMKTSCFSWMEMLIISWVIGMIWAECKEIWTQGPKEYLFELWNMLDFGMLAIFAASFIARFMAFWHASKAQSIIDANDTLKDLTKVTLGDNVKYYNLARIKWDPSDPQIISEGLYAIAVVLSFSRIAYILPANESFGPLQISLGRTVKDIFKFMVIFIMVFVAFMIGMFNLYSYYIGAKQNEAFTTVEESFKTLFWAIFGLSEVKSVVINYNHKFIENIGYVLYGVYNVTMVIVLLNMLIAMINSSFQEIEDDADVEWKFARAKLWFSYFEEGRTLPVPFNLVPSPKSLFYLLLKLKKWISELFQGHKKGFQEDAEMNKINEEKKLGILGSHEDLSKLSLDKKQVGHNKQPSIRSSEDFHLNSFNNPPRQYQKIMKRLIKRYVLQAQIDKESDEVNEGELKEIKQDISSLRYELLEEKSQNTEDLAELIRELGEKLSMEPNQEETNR

SMILES | IC50 [nM]
COc1cc(C(=O)N2CCC(c3cnc(N)cc3OC)CC2)ncc1OCC(C)C(F)(F)F (single isomer, unassigned) [Compound 94b, 4-Methoxy-5-(1-{4-methoxy-5-[3,3,3-trifluoro-2-methylpropoxy]pyridine-2-carbonyl}piperidin-4-yl)-pyridin-2-amine] | 351
COc1cc(C(=O)N2CCC(c3ccc(N)nc3)CC2)ncc1Oc1ccccc1 [Compound 3, (6-Amino-3′,4′,5′,6′-tetrahydro-2′H-[3,4′]bipyridinyl-1′-yl)-(4-methoxy-5-phenoxy-pyridin-2-yl)-methanone] | < 27
COc1cc(C(=O)N2CCC(c3cnc(N)cc3OC)CC2)ncc1Oc1ccc(F)cc1 [Compound 4, (6-Amino-4-methoxy-3′,4′,5′,6′-tetrahydro-2′H-[3,4′]bipyridinyl-1′-yl)-[5-(4-fluoro-phenoxy)-4-methoxy-pyridin-2-yl]methanone] | < 27
COc1cc(C(=O)N2CCN(c3cnc(N)cc3OC)CC2)ncc1Oc1ccccc1 [Compound 5, [4-(6-Amino-4-methoxy-pyridin-3-yl)-piperazin-1-yl]-(4-methoxy-5-phenoxy-pyridin-2-yl)-methanone] | 27
COc1cc(C(=O)N2CCC(c3ccc(N)nn3)CC2)ncc1Oc1ccc(OC(C)C)cc1 [Compound 6, [4-(6-Amino-pyridazin-3-yl)-piperidin-1-yl]-[5-(4-isopropoxy-phenoxy)-4-methoxy-pyridin-2-yl]-methanone] | 27
COc1cc(C(=O)N2CCN(c3cnc(N)cc3C)C[C@@H]2CO)ncc1Oc1ccc(F)cc1 [Compound 7, [(R)-4-(6-Amino-4-methyl-pyridin-3-yl)-2-hydroxymethyl-piperazin-1-yl]-[5-(4-fluoro-phenoxy)-4-methoxy-pyridin-2-yl]-methanone] | 27
COc1cc(C(=O)N2CCN(c3cnc(N)cc3OC)CC23CC3)ncc1Oc1ccccc1 [Compound 8, [7-(6-Amino-4-methoxy-pyridin-3-yl)-4,7-diaza-spiro[2.5]oct-4-yl]-(4-methoxy-5-phenoxy-pyridin-2-yl)-methanone] | 27
COc1cc(C(=O)N2CCC(c3cc(OC)c(N)nn3)CC2)ncc1Oc1ccc(F)cc1 [Compound 11, [4-(6-Amino-5-methoxy-pyridazin-3-yl)-piperidin-1-yl]-[5-(4-fluoro-phenoxy)-4-methoxy-pyridin-2-yl]-methanone] | 27
COc1ccc(Oc2cnc(C(=O)N3CCN(c4ccc(N)nc4)CC3)cc2OC)cc1 [Compound 12, [4-(6-Amino-pyridin-3-yl)-piperazin-1-yl]-[4-methoxy-5-(4-methoxy-phenoxy)-pyridin-2-yl]-methanone] | 27
COc1cc(C(=O)N2CCN(c3ccc(N)nc3)CC2)ncc1Oc1ccc(F)cc1 [Compound 13, [4-(6-Amino-pyridin-3-yl)-piperazin-1-yl]-[5-(4-fluoro-phenoxy)-4-methoxy-pyridin-2-yl]-methanone] | 27
COc1cc(C(=O)N2CCN(c3ccc(N)nc3)CC2)ncc1Oc1ccccc1 [Compound 15, [4-(6-Amino-pyridin-3-yl)-piperazin-1-yl]-(4-methoxy-5-phenoxy-pyridin-2-yl)-methanone] | 27
COc1cc(C(=O)N2CCC(c3ccc(N)nn3)CC2)ncc1Oc1ccccc1 [Compound 16, [4-(6-Amino-pyridazin-3-yl)-piperidin-1-yl]-(4-methoxy-5-phenoxy-pyridin-2-yl)-methanone] | 27
COc1cc(C(=O)N2CCC(c3cnc(N)cc3OC)CC2)ncc1OCc1ccccc1F [Compound 19, (6-Amino-4-methoxy-3′,4′,5′,6′-tetrahydro-2′H-[3,4′]bipyridinyl-1′-yl)-[5-(2-fluoro-benzyloxy)-4-methoxy-pyridin-2-yl]-methanone] | 32
COc1cc(C(=O)N2CCN(c3ccc(N)nc3)C[C@@H]2CO)ncc1Oc1ccc(F)cc1 [Compound 20, [(R)-4-(6-Amino-pyridin-3-yl)-2-hydroxymethyl-piperazin-1-yl]-[5-(4-fluoro-phenoxy)-4-methoxy-pyridin-2-yl]-methanone] | 42
COc1cc(C(=O)N2CCC(c3cc(OC)c(N)nn3)CC2)ncc1Oc1ccccc1 [Compound 21, [4-(6-Amino-5-methoxy-pyridazin-3-yl)-piperidin-1-yl]-(4-methoxy-5-phenoxy-pyridin-2-yl)-methanone] | 43
COc1ccc(Oc2cnc(C(=O)N3CCC(c4ccc(N)nc4)CC3)cc2OC)cc1 [Compound 22, (6-Amino-3′,4′,5′,6′-tetrahydro-2′H-[3,4′]bipyridinyl-1′-yl)-[4-methoxy-5-(4-methoxy-phenoxy)-pyridin-2-yl]-methanone] | 46

The next lines start with the values.

IC50 [nM] | SMILES
343 | COc1cc(C(=O)N2CCC(c3cnc(N)cc3OC)CC2)ncc1OCC(C)C(F)(F)F (single isomer, unassigned) [Compound 94a, 4-Methoxy-5-(1-{4-methoxy-5-[3,3,3-trifluoro-2-methylpropoxy]pyridine-2-carbonyl}piperidin-4-yl)-pyridin-2-amine]
< 27 | COc1cc(C(=O)N2CCN(c3cnc(N)cc3OC)CC2)ncc1Oc1ccc(F)cc1 [Compound 1, 5-{4-[5-(4-Fluorophenoxy)-4-methoxypyridine-2-carbonyl]piperazin-1-yl}-4-methoxypyridin-2-amine]
< 27 | COc1cc(C(=O)N2CCC(c3cnc(N)cc3C)CC2)ncc1Oc1ccc(F)cc1 [Compound 2, (6-Amino-4-methyl-3′,4′,5′,6′-tetrahydro-2′H-[3,4′]bipyridinyl-1′-yl)-[5-(4-fluoro-phenoxy)-4-methoxy-pyridin-2-yl]-methanone]
27 | COc1cc(C(=O)N2CCN(c3cnc(N)cc3OC)CC23CC3)ncc1Oc1ccc(F)cc1 [Compound 9, [7-(6-Amino-4-methoxy-pyridin-3-yl)-4,7-diaza-spiro[2.5]oct-4-yl]-[5-(4-fluoro-phenoxy)-4-methoxy-pyridin-2-yl]-methanone]
27 | COc1cc(C(=O)N2CCC(c3cnc(N)cc3C)CC2)ncc1Oc1ccccc1 [Compound 10, (6-Amino-4-methyl-3′,4′,5′,6′-tetrahydro-2′H-[3,4′]bipyridinyl-1′-yl)-(4-methoxy-5-phenoxy-pyridin-2-yl)-methanone]
27 | COc1cc(C(=O)N2CCC(c3ccc(N)nc3)CC2)ncc1Oc1ccc(F)cc1 [Compound 14, (6-Amino-3′,4′,5′,6′-tetrahydro-2′H-[3,4′]bipyridinyl-1′-yl)-[5-(4-fluoro-phenoxy)-4-methoxy-pyridin-2-yl]-methanone]
29 | COc1cc(C(=O)N2CCC(c3ccc(N)nn3)CC2)ncc1Oc1ccc(F)cc1 [Compound 17, 6-{1-[5-(4-Fluorophenoxy)-4-methoxypyridine-2-carbonyl]piperidin-4-yl}pyridazin-3-amine]
31 | COc1cc(C(=O)N2CCN(c3cnc(N)cc3C)C[C@@H]2CO)ncc1Oc1ccccc1 [Compound 18, [(R)-4-(6-Amino-4-methyl-pyridin-3-yl)-2-hydroxymethyl-piperazin-1-yl]-(4-methoxy-5-phenoxy-pyridin-2-yl)-methanone]
54 | COc1cc(C(=O)N2CCC(c3cnc(N)cc3OC)CC2)ncc1Oc1ccccc1 [Compound 23, (6-Amino-4-methoxy-3′,4′,5′,6′-tetrahydro-2′H-[3,4′]bipyridinyl-1′-yl)-(4-methoxy-5-phenoxy-pyridin-2-yl)-methanone]

Source: patent US10800757B2, “Inhibitors of TRPC6” (Boehringer Ingelheim International GmbH, priority 2017, dated 2020)
